Measured values: the supplement of paper PMC13380429

Columns and labels:
Conditions in all cases: 72 h
Caco-2 [1] = test: cell viability relative to DMSO; higher = less toxic
Calu-3 [2] = test: as above
HepG2 [3] = test: as above
U2OS [4] = test: as above
Vero E6 [5] = test: as above
Caco-2 [6] = test: relative viability EC50 (midpoint between 100% and the lowest measured viability); higher = less toxic
Calu-3 [7] = test: as above
HepG2 [8] = test: as above
U2OS [9] = test: as above
Vero E6 [10] = test: as above
Caco-2 [11] = test: drug sensitivity score (DSS) for viability; higher = more toxic; extreme values may be limits of the assay
Calu-3 [12] = test: as above
HepG2 [13] = test: as above
U2OS [14] = test: as above
Vero E6 [15] = test: as above

Row | SMILES | cell viability (Caco-2 [1]; 1 nM) | cell viability (Caco-2 [1]; 10 nM) | cell viability (Caco-2 [1]; 100 nM) | cell viability (Caco-2 [1]; 1000 nM) | cell viability (Caco-2 [1]; 10000 nM) | cell viability (Calu-3 [2]; 1 nM) | cell viability (Calu-3 [2]; 10 nM) | cell viability (Calu-3 [2]; 100 nM) | cell viability (Calu-3 [2]; 1000 nM) | cell viability (Calu-3 [2]; 10000 nM) | cell viability (HepG2 [3]; 1 nM) | cell viability (HepG2 [3]; 10 nM) | cell viability (HepG2 [3]; 100 nM) | cell viability (HepG2 [3]; 1000 nM) | cell viability (HepG2 [3]; 10000 nM) | cell viability (U2OS [4]; 1 nM) | cell viability (U2OS [4]; 10 nM) | cell viability (U2OS [4]; 100 nM) | cell viability (U2OS [4]; 1000 nM) | cell viability (U2OS [4]; 10000 nM) | cell viability (Vero E6 [5]; 1 nM) | cell viability (Vero E6 [5]; 10 nM) | cell viability (Vero E6 [5]; 100 nM) | cell viability (Vero E6 [5]; 1000 nM) | cell viability (Vero E6 [5]; 10000 nM) | relative viability EC50 (Caco-2 [6]) | relative viability EC50 (Calu-3 [7]) | relative viability EC50 (HepG2 [8]) | relative viability EC50 (U2OS [9]) | relative viability EC50 (Vero E6 [10]) | drug sensitivity score (Caco-2 [11]) | drug sensitivity score (Calu-3 [12]) | drug sensitivity score (HepG2 [13]) | drug sensitivity score (U2OS [14]) | drug sensitivity score (Vero E6 [15])
1 | Cc1ncc(COP(=O)([O-])[O-])c(CN(CCN(CC(=O)O)Cc2c(COP(=O)([O-])O)cnc(C)c2O)CC(=O)O)c1O.[Mn].[Na+].[Na+].[Na+] [Mangafodipir (trisodium)] | 95.1% | 99.5% | 94.5% | 108% | 135% | 91.5% | 107% | 104% | 87.6% | 103% | 110% | 89.4% | 105% | 101% | 98.4% | 95.1% | 100% | 94.7% | 93.4% | 101% | 111% | 99.7% | 107% | 97% | 99.2% | > 10 µM | > 10 µM | > 10 µM | > 10 µM | > 10 µM | 0 | 0 | 0 | 0 | 0
2 | CC[C@@H](CO)NC(=O)[C@@H]1C=C2c3cccc4c3c(cn4C)C[C@H]2N(C)C1 [methysergide] | 95.9% | 89.6% | 100% | 94.3% | 110% | 88.7% | 99.1% | 102% | 97% | 102% | 94.8% | 96.9% | 102% | 102% | 111% | 101% | 96.1% | 100% | 92.3% | 98.7% | 96% | 100% | 91.9% | 99.7% | 111% | > 10 µM | > 10 µM | > 10 µM | > 10 µM | > 10 µM | 0 | 0 | 0 | 0 | 0
3 | CCOc1ccc(Cc2cc([C@@H]3O[C@H](SC)[C@@H](O)[C@H](O)[C@H]3O)ccc2Cl)cc1 [sotagliflozin] | 98.3% | 102% | 100% | 92.5% | 91.1% | 91.4% | 94.1% | 112% | 97.7% | 99.8% | 90.3% | 101% | 98.4% | 101% | 91.8% | 97.7% | 95% | 100% | 97.6% | 95.4% | 94.6% | 97.2% | 95.4% | 95.8% | 102% | > 10 µM | > 10 µM | > 10 µM | > 10 µM | > 10 µM | 0 | 0 | 0 | 0 | 0
4 | Cn1ncc2c(N3CCOCC3)nc(-c3cccc(O)c3)nc21 | 99.9% | 108% | 94.5% | 61.5% | 25.2% | 86.3% | 102% | 83.7% | 79.1% | 24.5% | 100% | 101% | 111% | 95.6% | 19.8% | 98.8% | 99.6% | 99.3% | 90.6% | 28.9% | 100% | 102% | 98.9% | 78% | 30.9% | 0.938 µM | 1.64 µM | 2.74 µM | 2.1 µM | 1.35 µM | 8.7 | 6.7 | 5.1 | 5.5 | 7
5 | CCCCC/C=C\C=C\CCCCCCCCC(=O)O [trans-10,cis-12-conjugated-linoleic-acid] | 94.9% | 101% | 96.6% | 101% | 99.6% | 102% | 96.1% | 100% | 96.2% | 101% | 107% | 92% | 90.8% | 101% | 100% | 97.8% | 96.8% | 103% | 97.4% | 102% | 109% | 108% | 102% | 102% | 99.1% | > 10 µM | > 10 µM | > 10 µM | > 10 µM | > 10 µM | 0 | 0 | 0 | 0 | 0
6 | NC(=O)OCC(COC(N)=O)c1ccccc1 [felbamate] | 92.9% | 97.2% | 95.9% | 99.1% | 97.1% | 91% | 95.8% | 91.5% | 123% | 98.1% | 96.5% | 94.7% | 102% | 106% | 98.5% | 97.8% | 102% | 97.6% | 107% | 104% | 87.8% | 89.8% | 99.6% | 90.3% | 104% | > 10 µM | > 10 µM | > 10 µM | > 10 µM | > 10 µM | 0 | 0 | 0 | 0 | 0
